Experimental data: patent publication US4278686A, “Carbapenum derivatives, a process for their preparation and their use in pharmaceutical compositions and intermediates” (Beecham Group Limited, priority 1978, dated 1981)

What was measured:
Type in all cases: cell-based
Citrobacter freundii E8 [1] = assay: standard MIC test, Citrobacter freundii E8 (DST agar+5% horse blood)
Enterobacter cloacae M 1 = assay: standard MIC test, Enterobacter cloacae M 1 (DST agar+5% horse blood); settings: M1
E. coli 0111 = assay: standard MIC test, E. coli 0111 (DST agar+5% horse blood); settings: Escherichia coli
Klebsiella aerogenes A [2] = assay: standard MIC test, Klebsiella aerogenes A (DST agar+5% horse blood)
Proteus mirabilis 0977 = assay: standard MIC test, Proteus mirabilis 0977 (DST agar+5% horse blood)
Proteus morganii I 580 = assay: standard MIC test, Proteus morganii I 580 (DST agar+5% horse blood); settings: Morganella morganii, I580
Proteus rettgeri WM 16 = assay: standard MIC test, Proteus rettgeri WM 16 (DST agar+5% horse blood); settings: Providencia rettgeri, WM16
Proteus vulgaris WO 91 = assay: standard MIC test, Proteus vulgaris WO 91 (DST agar+5% horse blood); settings: WO91
Ps aeruginosa A = assay: standard MIC test, Ps aeruginosa A (DST agar+5% horse blood)
[3] = tested on: Salmonella typhimurium CT10; assay: standard MIC test, Salmonella typhimurium CT10 (DST agar+5% horse blood); settings: Salmonella enterica
Serratia marcescens US20 [4] = assay: standard MIC test, Serratia marcescens US20 (DST agar+5% horse blood)
Shigella sonnei MB 11967 [5] = assay: standard MIC test, Shigella sonnei MB 11967 (DST agar+5% horse blood); settings: MB11967
Staph. aureus Oxford = assay: standard MIC test, Staph. aureus Oxford (DST agar+5% horse blood); settings: Staphylococcus aureus
Staph. aureus Russell = assay: standard MIC test, Staph. aureus Russell (DST agar+5% horse blood); settings: Staphylococcus aureus
Staph. aureus 1517 = assay: standard MIC test, Staph. aureus 1517 (DST agar+5% horse blood); settings: Staphylococcus aureus
Strep. faecalis I = assay: standard MIC test, Strep. faecalis I (DST agar+5% horse blood); settings: Enterococcus faecalis
Citrobacter freundii E8 [6] = assay: minimum inhibitory concentration, Citrobacter freundii E8 (DST agar+10% horse blood)
Experimental: (§1) The minimum inhibitory concentrations (MIC) of the compound (e54) was determined using a standard DST agar+10% horse blood substrate. The tests used an undiluted inoculum of bacteria. […]
(§2) The minimum inhibitory concentrations (MIC) of this compound was determined using a standard DST agar+10% horse blood substrate.
(§3) The minimum inhibitory concentrations (MIC) of this compound was determined using a standard DST agar+10% horse blood substrate. The tests used an undiluted inoculum of bacteria.

Enterobacter cloacae N1 = assay: minimum inhibitory concentration, Enterobacter cloacae N1 (DST agar+10% horse blood); settings: Enterobacter cloacae, Enterobactor cloacae N1
Experimental: as §1, §2, §3

Escherichia coli 0111 = assay: minimum inhibitory concentration, Escherichia coli 0111 (DST agar+10% horse blood)
Experimental: as §1, §2, §3

Escherichia coli JT 39 = assay: minimum inhibitory concentration, Escherichia coli JT 39 (DST agar+10% horse blood); settings: JT39
Experimental: as §1, §2, §3

Klebsiella aerogenes A [7] = assay: minimum inhibitory concentration, Klebsiella aerogenes A (DST agar+10% horse blood)
Experimental: as §1, §2, §3

Proteus mirabilis C977 = assay: minimum inhibitory concentration, Proteus mirabilis C977 (DST agar+10% horse blood)
Experimental: as §1, §2, §3

Proteus morganii I580 = assay: minimum inhibitory concentration, Proteus morganii I580 (DST agar+10% horse blood); settings: Morganella morganii, I580
Experimental: The minimum inhibitory concentrations (MIC) of the compound (e54) was determined using a standard DST agar+10% horse blood substrate. The tests used an undiluted inoculum of bacteria.
Sodium (5R,6S)-3-(2-acetamidoethylthio)--6-ethyl-7-oxo-1-azabicyclo[3.2.0]-hept-2-ene-2-carboxylate [drawing 60] p-Methoxycarbonylbenzyl (5R,6S)-3-(2-acetamidoethylthio)-6-ethyl-7-oxo-1-azabicyclo[3.2.0]hept-2-ene-2-carboxylate (e58) (18 mg) was added to the cathodic compartment of an H-type divided two-compartment electrochemical cell, with a mercury cathode and a platinum anode. The cell contained degassed 0.1 M n-Bu4 NI in dimethylformamide as electrolyte. The volume of the catholyte was about 15 ml [glacial acetic acid (about 10 mg) added] and the volume of the anolyte was about 8 ml. A potentiostat was employed to fix the potential of the cathode at -1.9 V with respect to the standard calomel electrode, and the initial current, about 56 mA, fell to about 15 mA after about 15 min. The catholyte was removed from the cell and the solvent was evaporated in vacuo. The residue was taken up in CH2 Cl2 (10 ml) and washed with water (10 ml). The aqueous phase was separated and washed with CH2 Cl2. The aqueous phase, containing the tetrabutylammonium salt corresponding to (e63) was passed through an Amberlite IR 120 (Na form) column (17×1 cm) and the eluate was reduced to low volume by evaporation in vacuo. The residue was passed through a Biogel P-2 column, to yield fractions containing sodium (5R,6S)-3-(2-acetamidoethylthio)-6-ethyl-7-oxo-1-azabicyclo[3.2.0]hept-2-ene-2-carboxylate (e63) having λmax 298 nm. The minimum inhibitory concentrations (MIC) of this compound was determined using a standard DST agar+10% horse blood substrate.
Sodium (5R,6S)-3-[(E)-2-acetamidoethenylthio]-6-ethyl-7-oxo-1-azabicyclo[3.2.0]hept-2-ene-2-carboxylate [drawing 68] p-Methoxycarbonylbenzyl (5R,6S)-3-[(E)-2-acetamidoethenylthio]-6-ethyl-7-oxo-1-azabicyclo[3.2.0]hept-2-ene-2-carboxylate (e72) (64 mg) in solution in 0.1 M (n-C4 H9)4 NBF4 in dry DMF was added to the cathodic compartment of a divided cylindrical electrochemical cell, with a mercury cathode and platinum anode. The volume of electrolyte in the cathodic compartment was about 25 ml, and in the anodic compartment about 10 ml. Acetic acid (12 mg) was added to the cathodic compartment and ethanol (250 mg) was added to the anodic compartment. The cell was degassed by passing argon for 30 min. The potentiostat was engaged to maintain the potential of the cathode at -1.9 V w.r.t. standard calomel electrode. The initial current (40 mA) fell to about 5 mA after 25 min. The solvent was removed from the catholyte by evaporation in vacuo and the residual oil was taken up in CH2 Cl2 (20 ml) and extracted with water (15 ml) containing sodium tetrafluoroborate (100 mg). The aqueous extract was washed with CH2 Cl2 and then passed down an Amberlite 1R 120 column (1×20 cm) in the sodium form. The volume of the eluate was reduced to about 5 ml by evaporation in vacuo and loaded onto a Biogel P-2 column (18×3 cm). Elution with water yielded fractions containing sodium (5R,6S)-3-[(E)-2-acetamidoethenylthio]-6-ethyl-7-oxo-1-azabicyclo[3.2.0]hept-2-ene-2-carboxylate (e73) λmax 308 nm. The minimum inhibitory concentrations (MIC) of this compound was determined using a standard DST agar+10% horse blood substrate.
Sodium (5R,6R)-3-[(E)-2-acetamidoethenylthio]-6-(1-benzylthioethyl)-7-oxo-1-azabicyclo[3.2.0]hept-2-ene-2-carboxylate [drawing 87] The least polar crystalline isomer of the ester (e93) (40 mg) obtained in Example 70 was added to a mixture of 5% Pd on C (60 mg) in 20% aqueous dioxan (5 ml) which had been prehydrogenated for 0.5 h. Hydrogenation was continued for 4 h and the mixture was filtered through Celite after adding NaHCO3 (7 mg) and water (10 ml). The solution was concentrated to a volume of about 10 ml and was then washed with ethyl acetate (3×30 ml). […]

Proteus rettgeri WM16 = assay: minimum inhibitory concentration, Proteus rettgeri WM16 (DST agar+10% horse blood); settings: Providencia rettgeri
Experimental: as §1, §2, §3

Proteus vulgaris WO91 = assay: minimum inhibitory concentration, Proteus vulgaris WO91 (DST agar+10% horse blood)
Experimental: as §1, §2, §3

Pseudomonas aeruginosa A = assay: minimum inhibitory concentration, Pseudomonas aeruginosa A (DST agar+10% horse blood)
Experimental: as §1, §2, §3

[8] = tested on: Salmonella typhimurium CT10; assay: minimum inhibitory concentration, Salmonella typhimurium CT10 (DST agar+10% horse blood); settings: Salmonella enterica
Experimental: as §1, §2, §3

Serratia marcescens US20 [9] = assay: minimum inhibitory concentration, Serratia marcescens US20 (DST agar+10% horse blood)
Experimental: as §1, §2, §3

Shigella sonnei MB 11967 [10] = assay: minimum inhibitory concentration, Shigella sonnei MB 11967 (DST agar+10% horse blood); settings: MB11967
Experimental: as §1, §2, §3

Bacillus subtilis A = assay: minimum inhibitory concentration, Bacillus subtilis A (DST agar+10% horse blood)
Experimental: as §1, §2, §3

[11] = tested on: Staphylococcus aureus Oxford; assay: minimum inhibitory concentration, Staphylococcus aureus Oxford (DST agar+10% horse blood)
Experimental: as §1, §2, §3

[12] = tested on: Staphylococcus aureus Russell; assay: minimum inhibitory concentration, Staphylococcus aureus Russell (DST agar+10% horse blood)
Experimental: as §1, §2, §3

[13] = tested on: Staphylococcus aureus 1517; assay: minimum inhibitory concentration, Staphylococcus aureus 1517 (DST agar+10% horse blood)
Experimental: as §1, §2, §3

Streptococcus faecalis I = assay: minimum inhibitory concentration, Streptococcus faecalis I (DST agar+10% horse blood); settings: Enterococcus faecalis
Experimental: as §1, §2, §3

[14] = tested on: Streptococcus pneumoniae CN33; assay: minimum inhibitory concentration, Streptococcus pneumoniae CN33 (DST agar+10% horse blood)
Experimental: as §1, §2, §3

[15] = tested on: Streptococcus pyogenes CN10; assay: minimum inhibitory concentration, Streptococcus pyogenes CN10 (DST agar+10% horse blood)
Experimental: as §1, §2, §3

E. coli ESS = assay: minimum inhibitory concentration, E. coli ESS (DST agar+10% horse blood); settings: Escherichia coli
Experimental: as §1, §2, §3

Compound | MIC (Citrobacter freundii E8 [6]) [µg/mL] | MIC (Enterobacter cloacae N1) [µg/mL] | MIC (Escherichia coli 0111) [µg/mL] | MIC (Escherichia coli JT 39) [µg/mL] | MIC (Klebsiella aerogenes A [7]) [µg/mL] | MIC (Proteus mirabilis C977) [µg/mL] | MIC (Proteus morganii I580) [µg/mL] | MIC (Proteus rettgeri WM16) [µg/mL] | MIC (Proteus vulgaris WO91) [µg/mL] | MIC (Pseudomonas aeruginosa A) [µg/mL] | MIC [8] [µg/mL] | MIC (Serratia marcescens US20 [9]) [µg/mL] | MIC (Shigella sonnei MB 11967 [10]) [µg/mL] | MIC (Bacillus subtilis A) [µg/mL] | MIC [11] [µg/mL] | MIC [12] [µg/mL] | MIC [13] [µg/mL] | MIC (Streptococcus faecalis I) [µg/mL] | MIC [14] [µg/mL] | MIC [15] [µg/mL] | further results
CCSC(C)[C@H]1C(=O)N2C(C(=O)[O-])=C(S/C=C/NC(C)=O)C[C@H]12.[Na+] (stereo partly drawn) [e52, Sodium (5R,6R)-3-[(E)-2-acetamidoethenylthio]-6-(-1-ethylthio-ethyl)-7-oxo-1-azabicyclo[3.2.0]hept2-ene-2-carboxylate] |  |  |  |  |  |  |  |  |  |  |  |  |  |  |  |  |  |  |  |  | MIC (Citrobacter freundii E8 [1]): 3.1 µg/mL; MIC (Enterobacter cloacae M 1): 12.5 µg/mL; MIC (E. coli 0111): 3.1 µg/mL; MIC (Klebsiella aerogenes A [2]): 0.8 µg/mL; MIC (Proteus mirabilis 0977): 12.5 µg/mL; MIC (Proteus morganii I 580): 12.5 µg/mL; MIC (Proteus rettgeri WM 16): 6.25 µg/mL; MIC (Proteus vulgaris WO 91): 6.25 µg/mL; MIC (Ps aeruginosa A): 100 µg/mL; MIC [3]: 6.25 µg/mL; MIC (Serratia marcescens US20 [4]): 6.25 µg/mL; MIC (Shigella sonnei MB 11967 [5]): 3.1 µg/mL; MIC (Staph. aureus Oxford): 0.8 µg/mL; MIC (Staph. aureus Russell): 0.8 µg/mL; MIC (Staph. aureus 1517): 6.25 µg/mL; MIC (Strep. faecalis I): 50 µg/mL
C=CCSC(C)[C@H]1C(=O)N2C(C(=O)[O-])=C(S/C=C/NC(C)=O)C[C@H]12.[Na+] (stereo partly drawn) [e96, Sodium (5R,6R)-3-[(E)-2-acetamidoethenylthio]-6-(1-allylthioethyl)-7-oxo-1-azabicyclo[3.2.0]hept-2-ene-2-carboxylate] | 50 | 25 | 50 | 25 | 6.2 | 100 | 50 | 50 | 25 | > 100 | 25 | 50 | 25 | 1.6 | 0.8 | 1.6 | 12.5 | 50 | ≤ 0.2 | 0.4 | MIC (E. coli ESS): 1.6 µg/mL
CC(=O)N/C=C/SC1=C(C(=O)[O-])N2C(=O)[C@H](C(C)SCCNC(C)=O)[C@H]2C1.[Na+] (stereo partly drawn) [e98, Sodium (5R,6R)-3-[(E)-2-acetamidoethenylthio]-6-[1-(2-acetamidoethylthio)ethyl]-7-oxo-1-azabicyclo[3.2.0]hept-2-ene-2-carboxylate] | 5 | 5 | 5 | 5 | 5 | 12.5 | 25 | 12.5 | 12.5 | > 50 | 2.5 | 12.5 | 5 | 2.5 | 1.2 | 2.5 | 12.5 | 50 | 0.2 | 0.5 | MIC (E. coli ESS): 1.2 µg/mL
